From US20040077634A1, “Treatment of diseases characterized by excessive or insufficient cell death” (priority 2001, published 2004)
Residues, ends and D or L forms follow the SMILES beside them. *: point of attachment. Cbz = O=C(OCc1ccccc1)*; CH2F = FC*

Legend:
MCF-neo cells = assay: TNF-induced cell death of MCF-neo cells; type: cell-based
Description: (§1) The ability of compound f to inhibit cell death was examined in MCF-neo and MCF-casp3 cells. […] To analyse the mechanism of the action of compound f in alive cells, MCF-casp3 cells were treated with TNF (5 ng/ml) in the presence of 50 μM compound f and the activity of caspase-3-like proteases was measured by a DEVDase enzyme assay.

MCF-casp3 cells = assay: TNF-induced cell death of MCF-casp3 cells
Description: as §1

recombinant caspase-9 = biological target: T1, recombinant caspase-9 (Homo sapiens, UniProt P55211); assay: Recombinant caspase-9 activity, cleavage of LEHD-AFC; type: biochemical
T1 sequence (P55211 1-315 limits assumed): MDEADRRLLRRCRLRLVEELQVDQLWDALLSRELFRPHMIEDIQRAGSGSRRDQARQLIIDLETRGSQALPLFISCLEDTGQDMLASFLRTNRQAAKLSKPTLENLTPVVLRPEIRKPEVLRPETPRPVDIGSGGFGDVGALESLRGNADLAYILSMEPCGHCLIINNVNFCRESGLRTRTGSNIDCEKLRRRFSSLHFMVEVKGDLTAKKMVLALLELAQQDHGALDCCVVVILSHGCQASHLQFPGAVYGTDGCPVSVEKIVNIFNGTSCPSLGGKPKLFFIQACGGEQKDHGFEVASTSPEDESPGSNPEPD
T1 sequence (P55211 331-416 limits assumed): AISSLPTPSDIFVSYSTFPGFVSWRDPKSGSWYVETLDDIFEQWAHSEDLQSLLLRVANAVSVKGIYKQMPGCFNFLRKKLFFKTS
Description: The inhibition of the DEVDase activity in the in vitro caspase activation system could be due to a direct inhibition of caspase-9, -3, or -7 activities, or to the inhibition of the apoptosome formation. To test if compounds a, f, and g were specific caspase inhibitors, recombinant caspase-3 and caspase-9 were incubated with the three compounds and the enzymatic activities of caspases were monitored by analysing the cleavage of the caspase-3 substrate DEVD-AFC or the caspase-9 substrate LEHD-AFC, respectively.

[1] = tested on: caspase-9, caspase-3 and caspase-7 processing; DFF45/ICAD and PARP cleavage; assay: Processing of caspases and caspase substrates in Cc/dATP-stimulated cell extract, Western blotting; type: biochemical; conditions: cell extracts stimulated with Cc/dATP; Western blot; dose dependence
Description: Activation of endogene caspases is induced by addition of 1 mM dATP and 1 μM horse heart cytochrome c to cytosolic extract (protein concentration; 5-10 mg/ml) in the presence of DEVD-AFC and the compound (final concentration 100 μM). Activated DEVD'ases (AFC release) is measured by fluorometry in 96-well plates at 37° C. After end measurements 2× LSB-Mechaptoethanol are added to the samples for assessment of caspase processing by immunoblot analysis.
Next, the effect of the compounds on the processing of caspases and caspase substrates in the in vitro model system was analysed by Western blotting. Caspase-9, caspase-3 and caspase-7 were processed into p35, p17, and p20 active fragments, respectively, in response to Cc/dATP. Accordingly, Cc/dATP induced a threefold induction in DEVDase activity and cleavage of the caspase-3 substrates DFF45/ICAD and PARP.

recombinant caspase-3 = biological target: T2, recombinant caspase-3 (Homo sapiens, UniProt P42574); assay: Recombinant caspase-3 activity, cleavage of DEVD-AFC; type: biochemical
T2 sequence (P42574 29-175 limits assumed): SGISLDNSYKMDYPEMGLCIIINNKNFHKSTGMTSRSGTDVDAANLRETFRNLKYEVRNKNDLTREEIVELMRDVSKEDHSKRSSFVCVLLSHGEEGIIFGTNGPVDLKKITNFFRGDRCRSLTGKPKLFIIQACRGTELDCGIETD
T2 sequence (P42574 176-277 limits assumed): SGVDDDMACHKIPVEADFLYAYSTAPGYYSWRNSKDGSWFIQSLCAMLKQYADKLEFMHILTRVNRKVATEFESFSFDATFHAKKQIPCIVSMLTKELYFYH
Description: To test if compounds a, f, and g were specific caspase inhibitors, recombinant caspase-3 and caspase-9 were incubated with the three compounds and the enzymatic activities of caspases were monitored by analysing the cleavage of the caspase-3 substrate DEVD-AFC or the caspase-9 substrate LEHD-AFC, respectively.

[2] = tested on: DEVDase (caspase-3-like protease); assay: Inhibition of DEVDase in cytochrome c/dATP-activated Hela cytosolic extract (method 1); type: biochemical; conditions: compound final concentration 100 μM; 1 mM dATP and 1 μM cytochrome c; DEVD-AFC
Description: Hela cells are grown in large petri dishes until subconfluency. Cells are then harvested and washed in PBS. The cell pellet is resuspended in equal volumes of ice-cold isotonic lysisbuffer (SCA; 20 mM Hepes-KOH pH 7.5, 10 mM KCl, 1.5 mM MgCl2, 1 mM EDTA, 1 mM EGTA, 250 mM sucrose, 1 mM DTT, 10 μg/ml aprotinin, 1 μg/ml leupeptin, 1 μg/ml pepstatin A, 100 μg/ml peta-block), incubated on ice for 30 min and lysed by approx. 30 strokes of a dounce homogenizer. The lysate is then centrifuged at 750 g for 10 min, and the supernatant thereof at 10,000 g for 10 min and at 20,000 g for 30 min. The clarified supernatant is removed carefully and stored in aliquots at −80° C. Activation of endogene caspases is induced by addition of 1 mM dATP and 1 μM horse heart cytochrome c to cytosolic extract (protein concentration; 5-10 mg/ml) in the presence of DEVD-AFC and the compound (final concentration 100 μM). Activated DEVD'ases (AFC release) is measured by fluorometry in 96-well plates at 37° C. After end measurements 2× LSB-Mechaptoethanol are added to the samples for assessment of caspase processing by immunoblot analysis. Percent inhibition is calculated as follows: [formula]

[3] = biological target: T3, apoptosome complex (Apaf-1 and caspase-9) (Homo sapiens, UniProt O14727+P55211); assay: Apoptosome formation: co-immunoprecipitation of Apaf-1 with caspase-9 in cell extract; type: binding; conditions: 1 μM zVAD-fmk, 1 hour with Cc/dATP prior to IP
T3 construct: Caspase-9 antibody precipitated practically all caspase-9 present in the cell extract; endogenous in cells; host or cells: cell extract
T3 sequence (O14727 1-1248): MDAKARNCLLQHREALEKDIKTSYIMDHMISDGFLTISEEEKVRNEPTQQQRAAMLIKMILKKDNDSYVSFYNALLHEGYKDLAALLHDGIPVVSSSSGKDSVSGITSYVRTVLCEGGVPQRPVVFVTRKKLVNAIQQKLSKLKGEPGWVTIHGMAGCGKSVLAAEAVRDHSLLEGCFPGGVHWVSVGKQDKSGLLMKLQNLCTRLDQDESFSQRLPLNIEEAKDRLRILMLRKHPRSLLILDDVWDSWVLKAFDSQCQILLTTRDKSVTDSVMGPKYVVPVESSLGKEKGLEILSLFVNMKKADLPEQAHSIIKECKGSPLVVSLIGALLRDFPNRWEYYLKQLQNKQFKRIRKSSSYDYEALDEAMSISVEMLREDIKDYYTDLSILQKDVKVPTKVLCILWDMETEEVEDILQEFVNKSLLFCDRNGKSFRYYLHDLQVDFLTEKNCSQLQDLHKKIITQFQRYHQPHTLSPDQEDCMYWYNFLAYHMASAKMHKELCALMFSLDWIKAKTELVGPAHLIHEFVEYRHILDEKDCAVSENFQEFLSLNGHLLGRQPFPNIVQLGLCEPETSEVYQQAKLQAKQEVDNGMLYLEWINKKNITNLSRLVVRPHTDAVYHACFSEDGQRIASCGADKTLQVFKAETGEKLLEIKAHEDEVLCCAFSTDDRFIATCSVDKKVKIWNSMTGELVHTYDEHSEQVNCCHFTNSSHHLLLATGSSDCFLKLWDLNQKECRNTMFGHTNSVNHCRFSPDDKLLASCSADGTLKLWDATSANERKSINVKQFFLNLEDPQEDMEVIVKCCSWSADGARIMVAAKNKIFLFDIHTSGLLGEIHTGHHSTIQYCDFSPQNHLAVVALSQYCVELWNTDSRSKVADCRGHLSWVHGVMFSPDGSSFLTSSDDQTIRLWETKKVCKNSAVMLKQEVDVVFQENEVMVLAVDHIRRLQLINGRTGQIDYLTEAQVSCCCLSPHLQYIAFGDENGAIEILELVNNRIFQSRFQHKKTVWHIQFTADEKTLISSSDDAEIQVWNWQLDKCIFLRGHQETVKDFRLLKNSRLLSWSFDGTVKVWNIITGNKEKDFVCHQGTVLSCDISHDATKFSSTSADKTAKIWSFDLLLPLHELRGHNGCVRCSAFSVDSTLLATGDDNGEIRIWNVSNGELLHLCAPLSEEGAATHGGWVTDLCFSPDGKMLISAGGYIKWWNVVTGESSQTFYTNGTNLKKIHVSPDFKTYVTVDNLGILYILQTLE
T3 sequence (P55211 1-416): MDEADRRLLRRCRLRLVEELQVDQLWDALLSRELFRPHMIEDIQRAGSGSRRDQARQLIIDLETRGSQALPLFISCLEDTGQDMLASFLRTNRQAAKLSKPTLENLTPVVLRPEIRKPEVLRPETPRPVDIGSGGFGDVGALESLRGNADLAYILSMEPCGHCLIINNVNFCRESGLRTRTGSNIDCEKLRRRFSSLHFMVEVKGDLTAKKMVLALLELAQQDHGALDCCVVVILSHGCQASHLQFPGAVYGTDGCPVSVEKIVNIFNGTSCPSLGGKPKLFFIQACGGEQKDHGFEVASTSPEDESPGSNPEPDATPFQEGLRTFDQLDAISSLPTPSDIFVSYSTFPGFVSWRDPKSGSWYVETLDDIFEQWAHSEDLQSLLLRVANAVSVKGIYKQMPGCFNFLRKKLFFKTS
Description: Next, it was tested whether compound f interferes with the formation of apoptosome complex in response to Cc/dATP. Cell extracts were incubated with Cc/dATP in the presence or absence of 100 μM compound f or 1 μM zVAD-fmk for 1 hour prior to the immunoprecipitation (IP) of caspase-9. […] Hsp90, which has been proposed to associate with Apaf-1 and prevent oligomerization and caspase-9 recruitment, was not co-immunoprecipitated with caspase-9.

[4] = 25 to 100 μM, LEHD-AFC substrate
[5] = 25 to 100 μM, DEVD-AFC substrate

## CC(=O)N[C@@H](CC(=O)O)C(=O)N[C@@H](CCC(=O)O)C(=O)N[C@H](C(=O)N[C@H](C=O)CC(=O)O)C(C)C [DEVD-CHO, reference compound]
MCF-neo cells; 1 ng/ml TNF, 200 μM DEVD-CHO
  cell death induced by TNF: blocked
MCF-neo cells; 5 ng/ml TNF, 200 μM DEVD-CHO
  protection against TNF: significant protection
MCF-casp3 cells; 1 ng/ml TNF, 200 μM DEVD-CHO
  cell death induced by TNF: blocked
MCF-casp3 cells; 5 ng/ml TNF, 200 μM DEVD-CHO
  protection against TNF: significant protection
Recombinant caspase-9; 0.1 μM DEVD-CHO
  inhibition of recombinant caspase-9 activity: almost total inhibition

## COC(=O)c1cc(NC(=O)Nc2cccc(C(F)(F)F)c2)c(O)cc1[N+](=O)[O-] [a, [N-(2-Hydroxy-5-methoxycarbonyl-4-nitrophenyl)-N′-(3-trifluoromethylphenyl)]urea]
[1]
  inhibition of caspase-9, -3 and -7 processing and DFF45/ICAD and PARP cleavage: dose-dependent inhibition
Recombinant caspase-9; [4]
  inhibition of recombinant caspase-9 activity: failed to inhibit
Recombinant caspase-3; [5]
  inhibition of recombinant caspase-3 activity: failed to inhibit
[2]
  % Inhibition: 80%

## CN1[C@H]2CC[C@@H]1[C@@H](c1nc(-c3cccs3)no1)[C@@H](c1ccc3ccccc3c1)C2.Cl [c, (1R,2S,3S)-2-[3-(2-Thienyl)-1,2,4-oxadiazol-5-yl]-3-(2-naphthyl)-tropane hydrochloric acid salt]
other
  melting point: 149 to 150 °C
[2]
  % Inhibition: 60%

## c1ccc(-c2cccc(-n3cnc4ccccc43)c2)cc1 [d, 1-(3-Biphenyl)-benzimidazole]
[2]
  % Inhibition: 58%

## O=c1onc2cnc3cc([N+](=O)[O-])ccc3n12 [e, 7-Nitro-1,2,4-oxadiazolo[3,4-d]benz[b]-1,4-diazin-1-one]
[2]
  % Inhibition: 63%

## O=C(Nc1cccc(C(F)(F)F)c1)Nc1ccc(O)cc1O [g, [N-(2,4-Dihydroxyphenyl)-N′-(3-trifluoromethylphenyl)]urea]
[1]
  inhibition of caspase-9, -3 and -7 processing and DFF45/ICAD and PARP cleavage: dose-dependent inhibition
Recombinant caspase-9; [4]
  inhibition of recombinant caspase-9 activity: failed to inhibit
Recombinant caspase-3; [5]
  inhibition of recombinant caspase-3 activity: failed to inhibit
[2]
  % Inhibition: 74%

## COC(=O)C[C@H](NC(=O)[C@H](C)NC(=O)[C@@H](NC(=O)OCc1ccccc1)C(C)C)C(=O)CF [zVAD-fmk, reference compound] (Cbz-Val-Ala-Asp(OMe)-CH2F)
MCF-neo cells; 50 μM zVAD-fmk
  TNF-induced death: blocked completely
MCF-casp3 cells; 50 μM zVAD-fmk
  TNF-induced death: blocked completely
Recombinant caspase-9; 1 μM zVAD-fmk
  inhibition of recombinant caspase-9 activity: almost total inhibition
[3]
  co-immunoprecipitation of Apaf-1 with caspase-9: efficiently co-immunoprecipitated
Recombinant caspase-3; 1 μM zVAD-fmk
  inhibition of recombinant caspase-3 activity: almost total inhibition
